Assay results: patent US11401264B2, “Heterocyclic compound” (Orizuru Therapeutics, Inc., priority 2018, dated 2022)

Test system: cardiomyocytes from human iPS cell lines 409B2
Assay: Experimental Example 4: membrane potential analysis (FluoVolt), beats per minute
Type: cell-based
Conditions: treated from 25th day, measured on 28th day; n = 3; DMSO control 70.7
Protocol: For analysis of electrophysiological function of cardiomyocytes, humans iPS cell lines 409B2 (prepared from episomal vector (pCXLE-hOCT3/4-shp53-F, pCXLE-hSK, pCXLE-hUL) using HDF1388 purchased from Cell Applications, Inc (reference literature; Okita et al., Nat Methods. 8(5):409-12. (2011))) were used.
The maintenance culture of the above-mentioned iPS cell lines was carried out by a conventional method (Takahashi K, et al. Cell. 131: 861-72, 2007 and Nakagawa M, et al. Nat Biotechnol. 26: 101-6, 2008).
For differentiation induction into cardiomyocytes, the iPS cell lines were treated with CTK solution (ReproCELL) for 2 minutes, the solution was removed, and then the iPS cell lines were treated with Accumax (Innovative Cell Technologies) for 5 minutes, and the cells were dissociated into the single cell by pipetting. The cells were collected by centrifugation (1,000 rpm, 5 min), and seeded on low attachment 96 well dish (Corning) by 5000 cells/70 μL/well, and cultured in a medium prepared by adding 1% L-glutamine, transferrin 150 μg/mL, ascorbic acid 50 μg/mL (Sigma), monothioglycerol 4×10^−4 M, 10 μM Rock inhibitor (Y-27632), 2 ng/mL BMP4 (R&D) and 0.5% Matrigel (Growth Factor Reduced) to StemPro-34 SFM (ThermoFisher) at 37° C., under 5% oxygen condition to form embryoid bodies (0 day). […]

SMILES: O=C1c2ccc(N3CCOCC3)cc2CN1c1ccc2[nH]c(-c3ccc(Br)cc3)nc2c1 [Example 8, 2-(2-(4-bromophenyl)-1H-benzimidazol-5-yl)-5-(morpholin-4-yl)isoindolin-1-one]
- beats (mean): 32.0 beats per minute
